Results taken from patent US7097965B2 (priority 1996, dated 2006).

Test system: mouse mastocytoma cells
Format: cell-based

CC(=O)N[C@@H](CSC(=O)[C@]1([C@@H](O)C(C)C)NC(=O)[C@H](C)[C@@H]1O)C(=O)O [lactacystin]
lysis of the target cells by CTLs: significantly decreased lysis
